Measured values taken from US20230096028A1, “BICYCLIC HETEROCYCLYL COMPOUNDS AND USES THEREOF” (Revolution Medicines, Inc., priority 2019, published 2023).

Columns and labels:
[1] = biological target: T1, SOS1 catalytic domain (residues 564-1049) (Homo sapiens, UniProt Q07889); test: Potency Assay: binding affinity to SOS1 using Surface Plasmon Resonance (SPR); set-up: SOS1 catalytic domain (residues 564-1049) immobilized on a sensor chip; settings: immobilized SOS1 catalytic domain (residues 564-1049), read-out: SOS1 SPR Equilibrium Kd
T1 sequence (Q07889 564-1049): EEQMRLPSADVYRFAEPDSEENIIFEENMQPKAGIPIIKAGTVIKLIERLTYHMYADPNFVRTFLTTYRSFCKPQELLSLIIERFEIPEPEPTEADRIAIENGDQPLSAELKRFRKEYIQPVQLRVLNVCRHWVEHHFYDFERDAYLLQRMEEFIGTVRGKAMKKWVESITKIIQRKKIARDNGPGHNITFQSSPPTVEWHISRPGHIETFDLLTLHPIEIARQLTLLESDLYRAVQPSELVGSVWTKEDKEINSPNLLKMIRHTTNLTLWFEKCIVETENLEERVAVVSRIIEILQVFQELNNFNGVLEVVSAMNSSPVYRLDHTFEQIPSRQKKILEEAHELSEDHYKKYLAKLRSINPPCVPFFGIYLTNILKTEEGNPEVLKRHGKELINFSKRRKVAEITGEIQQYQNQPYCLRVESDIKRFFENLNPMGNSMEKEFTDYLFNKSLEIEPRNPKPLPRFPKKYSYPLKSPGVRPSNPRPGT
Outline: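 Avi-tagged SOS1 catalytic domain captured on streptavidin chip (~6000 RU) in 0.01 M HEPES, 0.15 M NaCl, 0.05% P20. Compound dilution series flowed at 50 μL/min for association, then buffer for dissociation, with double reference subtraction. Kd derived from end-of-association binding response plotted against concentration.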

[2] = biological target: T1, SOS1 catalytic domain (residues 564-1049); test: Mode of Action Assay: inhibition of SOS1 nucleotide exchange activity (SOS1 TR-FRET IC50 Assay)
[3] = test system: PC-9 cells (EGFR Ex19Del); test: Potency Assay: pERK (SOS1 pERK IC50 Assay, AlphaLISA SureFire Ultra p-ERK1/2); format: cell-based; settings: Homo sapiens; PC-9 cells (EGFR Ex19Del), 1 hour incubation, AlphaLISA p-ERK1/2; read-out: SOS1 pERK IC50
Outline: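 PC-9 (EGFR Ex19Del) cells plated overnight, then treated 1 h at 37° C. with 10-point 3-fold dilutions (top 10 μM final) in duplicate. Lysate pERK1/2 measured by AlphaLISA SureFire Ultra; IC50 from 4-parameter sigmoidal fit.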

| Structure (SMILES) | Kd [1] [nM] | IC50 [2] [nM] | IC50 [3] [nM] |
| --- | --- | --- | --- |
| C[C@@H](Nc1nc(Cl)nc2c1CN(C(=O)[C@@H]1COCCN1)C2)c1cccc(C(F)F)c1F [Example 309] | < 400 | < 1000 | < 1000 |
| C[C@@H](Nc1nc(Cl)nc2c1CN(C(=O)N1CC3CCC1CN3)C2)c1cccc(C(F)F)c1F (stereo partly drawn) [Example 384] | < 400 | < 1000 | < 1000 |
| COc1cnc(C(=O)N2Cc3nc(Cl)nc(N[C@H](C)c4cc(N)cc(C(F)(F)F)c4)c3C2)cc1OC [Example 59] | < 400 | < 1000 | < 1000 |
| C[C@@H](Nc1nc(Cl)nc2c1CN(C(=O)N1CCOCC1)C2)c1cccc2c(F)coc12 [Example 468, [2-chloro-4-[[(1R)-1-(3-fluorobenzofuran-7-yl)ethyl]amino]-5,7-dihydropyrrolo[3,4-d]pyrimidin-6-yl]-morpholino-methanone] | < 400 | < 1000 | < 1000 |
| C[C@@H](Nc1nc(Cl)nc2c1CN(C(=O)C1(F)CN(C3COC3)C1)C2)c1cccc(C(F)F)c1F [Example 329] | < 400 | < 1000 | < 1000 |
| COC1(C(=O)N2Cc3nc(Cl)nc(NC(C)c4cccc(C(F)(F)CO)c4F)c3C2)CCOCC1 (stereo not drawn) [Example 471, 2-[3-(1-{[2-chloro-6-(4-methoxyoxane-4-carbonyl)-5H,6H,7H-pyrrolo[3,4-d]pyrimidin-4-yl]amino}ethyl)-2-fluorophenyl]-2,2-difluoroethan-1-ol] | < 400 | < 1000 | < 1000 |
| C[C@@H](Nc1nc(Cl)nc2c1CN(C(=O)C1CNCCO1)C2)c1cccc(C(F)F)c1F (stereo partly drawn) [Example 288] | < 400 | < 1000 | < 1000 |
| C[C@@H](Nc1nc(Cl)nc2c1CN(S(=O)(=O)N1CCOCC1)CC2)c1cccc(C(F)(F)F)c1 [Example 185] | > 400 | < 1000 | > 1000 |
| CNc1nc2c(c(N[C@H](C)c3cccc(C(F)F)c3F)n1)CN(C(=O)N1CCOCC1)C2 [Example 505, N4-[(1R)-1-[3-(difluoromethyl)-2-fluorophenyl]ethyl]-N2-methyl-6-(morpholine-4-carbonyl)-5H,6H,7H-pyrrolo[3,4-d]pyrimidine-2,4-diamine] | > 400 | > 1000 | > 1000 |
| C[C@@H](Nc1nc(Cl)nc2c1CN(C(=O)N1CCNc3ccncc31)C2)c1cccc(C(F)(F)F)c1 [Example 375] | < 400 | < 1000 | < 1000 |
| C[C@@H](Nc1nc(Cl)nc2c1CN(C(=O)C1(F)CNC1)C2)c1cccc(C(F)F)c1F [Example 282] | < 400 | < 1000 | < 1000 |
| C[C@@H](Nc1nc(Cl)nc2c1CN(C(=O)C1(O)COC1)CC2)c1cc(N)cc(C(F)(F)F)c1 [Example 226] | < 400 | > 1000 | > 1000 |
| C[C@@H](Nc1nc(Cl)nc2c1CN(C(=O)N1CCC(O)CC1)C2)c1cccc(C(F)F)c1F [Example 395] | < 400 | < 1000 | < 1000 |
| COc1ccc2c(c1)OCCN2C(=O)N1Cc2nc(Cl)nc(N[C@H](C)c3cc(N)cc(C(F)(F)F)c3)c2C1 [Example 140] | < 400 | > 1000 | < 1000 |
| C[C@@H](Nc1nc(Cl)nc2c1CN(C(=O)c1ccc(-n3ccnc3)cn1)CC2)c1cc(N)cc(C(F)(F)F)c1 [Example 250] | > 400 | > 1000 | > 1000 |
| COc1cc(C(=O)N2CCc3nc(Cl)nc(N[C@H](C)c4cc(N)cc(C(F)(F)F)c4)c3C2)nc(OC)n1 [Example 229] | > 400 | > 1000 | > 1000 |
| C[C@@H](Nc1nc(Cl)nc2c1CN(C(=O)N1CCNCC1)C2)c1cc(N)cc(C(F)(F)F)c1 [Example 356] | < 400 | < 1000 | < 1000 |
| C[C@@H](Nc1nc(Cl)nc2c1CN(C(=O)N1CCOCC1)C2)c1cccc(C(F)(F)C(C)(C)O)c1F [Example 493] | < 400 | < 1000 | < 1000 |
| C[C@@H](Nc1nc(Cl)nc2c1CN(C(=O)N1CCN(C)C(C(F)(F)F)C1)C2)c1cccc(C(F)F)c1F (stereo partly drawn) [Example 418] | < 400 | < 1000 | < 1000 |

| Structure (SMILES) | Kd [1] [nM] | IC50 [2] [nM] | IC50 [3] [nM] |
| --- | --- | --- | --- |
| C[C@@H](Nc1nc(Cl)nc2c1CN(C(=O)N1C3CC1CN(C1COC1)C3)C2)c1cccc(C(F)F)c1F [Example 422] | < 400 | < 1000 | < 1000 |
| COC1(C(=O)N2Cc3nc(Cl)nc(N[C@H](C)c4cccc(C(F)(F)CN)c4F)c3C2)CCOCC1 [Example 526, N-[(1R)-1-[3-(2-amino-1,1-difluoroethyl)-2-fluorophenyl]ethyl]-2-chloro-6-(4-methoxyoxane-4-carbonyl)-5H,6H,7H-pyrrolo[3,4-d]pyrimidin-4-amine] | < 400 | < 1000 | < 1000 |
| C[C@@H](Nc1nc(Cl)nc2c1CN(C(=O)CC1CCN(C)C1)C2)c1cc(N)cc(C(F)(F)F)c1 (stereo partly drawn) [Example 257] | < 400 | < 1000 | > 1000 |
| C[C@@H](Nc1nc(Cl)nc2c1CN(C(=O)C1(C#N)CC1)CC2)c1cc(N)cc(C(F)(F)F)c1 [Example 194] | > 400 | > 1000 | < 1000 |
| C[C@@H](Nc1nc(Cl)nc2c1CN(C(=O)N1CCNc3ncccc31)C2)c1cccc(C(F)(F)F)c1 [Example 370] | < 400 | < 1000 | < 1000 |
| C[C@@H](Nc1nc(Cl)nc2c1CN(C(=O)N1CCOCC1)C2)c1cccc(C(C)(F)F)c1F [Example 478, 2-chloro-N-[(1R)-1-[3-(1,1-difluoroethyl)-2-fluorophenyl]ethyl]-6-(morpholine-4-carbonyl)-5H,6H,7H-pyrrolo[3,4-d]pyrimidin-4-amine] | < 400 | < 1000 | < 1000 |
| C[C@@H](Nc1nc(Cl)nc2c1CN(C(=O)C1(C)CCN(C)CC1)C2)c1cc(N)cc(C(F)(F)F)c1 [Example 262] | < 400 | < 1000 | < 1000 |
| C[C@@H](Nc1nc(Cl)nc2c1CN(C(=O)N1CCOCC1)C2)c1cccc(C(F)F)c1 [Example 486, 2-chloro-N-[(1R)-1-[3-(difluoromethyl)phenyl]ethyl]-6-(morpholine-4-carbonyl)-5H,6H,7H-pyrrolo[3,4-d]pyrimidin-4-amine] | < 400 | < 1000 | > 1000 |
| C[C@@H](Nc1nc(Cl)nc2c1CN(C(=O)CC1COCCN1C)C2)c1cccc(C(F)F)c1F (stereo partly drawn) [Example 322] | < 400 | < 1000 | < 1000 |
| COC1(C(=O)N2Cc3nc(Cl)nc(N[C@H](C)c4cccc(C(F)(F)F)c4)c3C2)CCOCC1 [Example 227] | < 400 | < 1000 | < 1000 |
| C[C@@H](Nc1nc(Cl)nc2c1CN(C(=O)N1CCN(C3COC3)CC1)C2)c1cccc(C(F)(F)CO)c1 [Example 357] | < 400 | < 1000 | < 1000 |
| C[C@@H](Nc1nc(Cl)nc2c1CN(C(=O)N1CCNC3(CC3)C1)C2)c1cccc(C(F)(F)F)c1 [Example 374] | < 400 | < 1000 | < 1000 |
| C[C@@H](Nc1nc(Cl)nc2c1CN(S(=O)(=O)N1CCOCC1)C2)c1cc(N)cc(C(F)(F)F)c1 [Example 24, N-[(1R)-1-[3-amino-5-(trifluoromethyl)phenyl]ethyl]-2-chloro-6-morpholinosulfonyl-5,7-dihydropyrrolo[3,4-d]pyrimidin-4-amine] | < 400 | < 1000 | < 1000 |
| C[C@@H](Nc1nc(Cl)nc2c1CN(C(=O)C1CN(C3COC3)C1)C2)c1cccc(C(F)F)c1F [Example 339] | < 400 | < 1000 | < 1000 |
| C[C@@H](Nc1nc(Cl)nc2c1CN(S(=O)(=O)N1CC3CCC(C1)O3)CC2)c1cc(N)cc(C(F)(F)F)c1 [Example 180] | < 400 | < 1000 | < 1000 |
| C[C@@H](Nc1nc(Cl)nc2c1CN(C(=O)C1(C)CCNCC1)C2)c1cccc(C(F)(F)F)c1 [Example 314] | < 400 | < 1000 | > 1000 |
| C[C@@H](Nc1nc(Cl)nc2c1CN(C(=O)N1CCCC13CCNC3)C2)c1cccc(C(F)F)c1F (stereo partly drawn) [Example 382] | < 400 | < 1000 | > 1000 |
| C[C@@H](Nc1nc(Cl)nc2c1CN(C(=O)N1CCNC(c3ccncc3)C1)C2)c1cccc(C(F)F)c1F (stereo partly drawn) [Example 401] | < 400 | < 1000 | < 1000 |
